# From ChEMBL document CHEMBL1150954, “Isolation and synthesis of an alpha-malamic acid derivative from Justicia ghiesbreghtiana” (J Nat Prod, 1998)
# Active and inactive are the calls of the source. No cut-off for these calls is given here.
# Tested on: Mycobacterium tuberculosis
# Assay: Antibacterial activity against Mycobacterium tuberculosis
# Assay type: functional, organism-based
compound,measurement,value
COc1ccc(NC(=O)[C@@H](O)CC(=O)O)cc1OC,Activity,inactive
